Data taken from PubChem BioAssay AID248 (DTP/NCI, 2004).
Values joined by “and” are separate entries in the source; they are usually repeats but may differ in a detail not shown here. Equal values may be shown once. Inconclusive results and toxic doses are left out. Cut-off read from the data, not from the text of the source: active = T/C of 150% or more; inactive = T/C below 125%.

System: L1210 leukemia ip in BDF1 mice, survival T/C
Test: NCI In Vivo Anticancer Drug Screen. Data for tumor model L1210 Leukemia (intraperitoneal) in B6D2F1 (BDF1) mice
Settings: endpoint: mean survival time, higher = longer survival
Procedure, shortened: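 Survival endpoint. Drug-treated group vs vehicle group, expressed as T divided by C. Tumor passaged by transplantation.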

[1] = dose: 75.0 mg/kg/injection, schedule: Q01DX001 (ip), vehicle: carboxymethylcellulose (CMC)
[2] = dose: 150.0 mg/kg/injection, schedule: Q01DX001 (ip), vehicle: carboxymethylcellulose (CMC)
[3] = dose: 300.0 mg/kg/injection, schedule: Q01DX001 (ip), vehicle: carboxymethylcellulose (CMC)
[4] = dose: 100.0 mg/kg/injection, schedule: Q01DX001 (ip), vehicle: saline
[5] = dose: 200.0 mg/kg/injection, schedule: Q01DX001 (ip), vehicle: saline
[6] = dose: 400.0 mg/kg/injection, schedule: Q01DX001 (ip), vehicle: saline
[7] = dose: 100.0 mg/kg/injection, schedule: Q04DX003 (ip), vehicle: saline with Tween-80
[8] = dose: 200.0 mg/kg/injection, schedule: Q04DX003 (ip), vehicle: saline with Tween-80
[9] = dose: 400.0 mg/kg/injection, schedule: Q04DX003 (ip), vehicle: saline with Tween-80
[10] = dose: 100.0 mg/kg/injection, schedule: Q01DX009 (ip), vehicle: saline with Tween-80
[11] = dose: 200.0 mg/kg/injection, schedule: Q01DX009 (ip), vehicle: saline with Tween-80
[12] = dose: 100.0 mg/kg/injection, schedule: Q04DX002 (ip), vehicle: saline with Tween-80
[13] = dose: 200.0 mg/kg/injection, schedule: Q04DX002 (ip), vehicle: saline with Tween-80
[14] = dose: 100.0 mg/kg/injection, schedule: Q04DX002 (ip), vehicle: Klucel (hydroxypropylcellulose) (HPC)
[15] = dose: 200.0 mg/kg/injection, schedule: Q04DX002 (ip), vehicle: Klucel (hydroxypropylcellulose) (HPC)
[16] = dose: 400.0 mg/kg/injection, schedule: Q04DX002 (ip), vehicle: Klucel (hydroxypropylcellulose) (HPC)

Measured: T/C

CCOc1ccc(NC(C)=O)c(OC(C)=O)c1
inactive: [1] 95 % of control and 100 % of control | [2] 100 % of control | [3] 93 % of control

CNC(=O)Oc1c(C)occc1=O
inactive: dose: 75.0 mg/kg/injection, schedule: Q01DX009 (ip), vehicle: other 100 % of control | dose: 75.0 mg/kg/injection, schedule: Q01DX009 (ip), vehicle: saline with Tween-80 103 % of control | [4] 106 % of control | dose: 135.0 mg/kg/injection, schedule: Q01DX009 (ip), vehicle: other 111 % of control | dose: 150.0 mg/kg/injection, schedule: Q01DX009 (ip), vehicle: other 104 % of control | dose: 150.0 mg/kg/injection, schedule: Q01DX009 (ip), vehicle: saline with Tween-80 111 % of control | [5] 101 % of control | dose: 200.0 mg/kg/injection, schedule: Q01DX009 (ip), vehicle: other 108 % of control | dose: 300.0 mg/kg/injection, schedule: Q01DX009 (ip), vehicle: other 116 % of control | dose: 300.0 mg/kg/injection, schedule: Q01DX009 (ip), vehicle: saline with Tween-80 106 % of control | [6] 105 % of control

C=C1C(=O)N(C)C(C(=O)OC)CC1(O)C(CC)C(=O)OC (stereo unspecified)
inactive: dose: 18.7 mg/kg/injection, schedule: Q01DX001 (ip), vehicle: saline 94 % of control | dose: 37.5 mg/kg/injection, schedule: Q01DX001 (ip), vehicle: saline 98 % of control | dose: 75.0 mg/kg/injection, schedule: Q01DX001 (ip), vehicle: saline 117 % of control | dose: 150.0 mg/kg/injection, schedule: Q01DX001 (ip), vehicle: saline 102 % of control

COC(=O)Cc1ccccc1C(=O)OC
inactive: [7] 107 % of control | [8] 96 % of control | [9] 100 % of control

CN(N)C(=O)Nc1cccc(Cl)c1
inactive: [1] 102 % of control | [2] 107 % of control | [3] 107 % of control

CC(C)(C)c1ccc(Sc2cnccc2C(C)(C)C)cc1
inactive: dose: 87.5 mg/kg/injection, schedule: Q04DX003 (ip), vehicle: saline with Tween-80 97 % of control | dose: 175.0 mg/kg/injection, schedule: Q04DX003 (ip), vehicle: saline with Tween-80 102 % of control | dose: 350.0 mg/kg/injection, schedule: Q04DX003 (ip), vehicle: saline with Tween-80 94 % of control

CC(=O)Nc1ccc(NC(C)=O)c2c1C(=O)c1ccccc1C2=O
inactive: [10] 94 % of control | [7] 119 % of control | [11] 96 % of control | [8] 112 % of control | dose: 400.0 mg/kg/injection, schedule: Q01DX009 (ip), vehicle: saline with Tween-80 91 % of control | [9] 93 % of control

CCCCCCCC[As](=O)(O)CCCCCCCC
inactive: dose: 50.0 mg/kg/injection, schedule: Q01DX001 (ip), vehicle: saline 101 % of control | [4] 101 % of control | [5] 98 % of control | [6] 107 % of control

O=C(O)CNC(=S)Nc1ccc(S(=O)(=O)c2ccc(NC(=S)NCC(=O)O)cc2)cc1
inactive: [4] 102 % of control | [5] 102 % of control | [6] 102 % of control

Cc1[nH]nc(C(=O)O)c1Br
inactive: dose: 25.0 mg/kg/injection, schedule: Q01DX005 (ip), vehicle: saline 100 % of control | dose: 50.0 mg/kg/injection, schedule: Q01DX005 (ip), vehicle: saline 105 % of control | dose: 100.0 mg/kg/injection, schedule: Q01DX005 (ip), vehicle: saline 122 % of control | dose: 200.0 mg/kg/injection, schedule: Q01DX005 (ip), vehicle: saline 102 % of control | dose: 400.0 mg/kg/injection, schedule: Q01DX005 (ip), vehicle: saline 113 % of control

COC(=O)C1(C)COP(=O)(NC2CCCCC2)OC1 (stereo unspecified)
inactive: [4] 94 % of control | [5] 97 % of control | [6] 108 % of control

O=C(O)c1ccc(NCc2cccc(NCCCc3ccccc3)c2)cc1
inactive: dose: 100.0 mg/kg/injection, schedule: Q01DX001 (ip), vehicle: saline with Tween-80 92 % of control | dose: 200.0 mg/kg/injection, schedule: Q01DX001 (ip), vehicle: saline with Tween-80 92 % of control | dose: 400.0 mg/kg/injection, schedule: Q01DX001 (ip), vehicle: saline with Tween-80 93 % of control

CCCCCCCCCCCCSCO
inactive: dose: 25.0 mg/kg/injection, schedule: Q01DX009 (ip), vehicle: saline with Tween-80 118 % of control | dose: 50.0 mg/kg/injection, schedule: Q01DX009 (ip), vehicle: saline with Tween-80 105 % of control | [10] 101 % of control and 91 % of control | [7] 105 % of control | [11] 90 % of control | [8] 96 % of control

O=C(O)c1cncc(-c2ccccc2)c1
inactive: [12] 104 % of control | [13] 111 % of control

Nc1ccc(C(=O)c2ccc(N)cc2)cc1
inactive: dose: 100.0 mg/kg/injection, schedule: Q01DX009 (ip), vehicle: Klucel (hydroxypropylcellulose) (HPC) 98 % of control | [14] 107 % of control | dose: 200.0 mg/kg/injection, schedule: Q01DX009 (ip), vehicle: Klucel (hydroxypropylcellulose) (HPC) 120 % of control | [15] 104 % of control | dose: 400.0 mg/kg/injection, schedule: Q01DX009 (ip), vehicle: Klucel (hydroxypropylcellulose) (HPC) 106 % of control | [16] 96 % of control

O=C(O)COc1ccccc1Cl
inactive: dose: 100.0 mg/kg/injection, schedule: Q04DX003 (ip), vehicle: Klucel (hydroxypropylcellulose) (HPC) 105 % of control | dose: 200.0 mg/kg/injection, schedule: Q04DX003 (ip), vehicle: Klucel (hydroxypropylcellulose) (HPC) 104 % of control | dose: 400.0 mg/kg/injection, schedule: Q04DX003 (ip), vehicle: Klucel (hydroxypropylcellulose) (HPC) 107 % of control

O=[N+]([O-])c1ccccc1-c1ccccc1[N+](=O)[O-]
inactive: [12] 97 % of control | [13] 90 % of control | dose: 400.0 mg/kg/injection, schedule: Q04DX002 (ip), vehicle: saline with Tween-80 87 % of control

Cn1cnc([N+](=O)[O-])c1Sc1ncnc2nc[nH]c12
active: dose: 250.0 mg/kg/injection, schedule: Q01DX001 (ip), vehicle: carboxymethylcellulose (CMC) 150 % of control | dose: 500.0 mg/kg/injection, schedule: Q01DX001 (ip), vehicle: carboxymethylcellulose (CMC) 165 % of control
inactive: dose: 8.0 mg/kg/injection, schedule: Q01DX Z (ip), vehicle: methylcellulose (MC) 109 % of control | dose: 12.0 mg/kg/injection, schedule: Q01DX Z (ip), vehicle: methylcellulose (MC) 112 % of control | dose: 17.0 mg/kg/injection, schedule: Q01DX Z (ip), vehicle: methylcellulose (MC) 117 % of control | dose: 25.0 mg/kg/injection, schedule: Q01DX Z (ip), vehicle: methylcellulose (MC) 104 % of control | dose: 62.0 mg/kg/injection, schedule: Q01DX001 (ip), vehicle: carboxymethylcellulose (CMC) 124 % of control

CC1(C)CC(=O)C2=C(C1)Nc1ccc(Cl)cc1NC2c1cccc([N+](=O)[O-])c1 (stereo unspecified)
inactive: [14] 98 % of control | [15] 105 % of control | [16] 102 % of control
